Laboratory results as given in patent US20060019890A1, “Method for treating cardiac remodeling following myocardial injury” (priority 2004, published 2006).

Assays:
[1] = system: human cardiac fibroblasts; assay: BrdU incorporation, cardiac fibroblast proliferation; format: cell-based; conditions: 5 ng/ml TGFβ
Protocol: Cells were placed in 96-well plates and cultured for 24 h before changing to serum-free medium. […] Subsequently, 10 μmol/L of 5-bromo-2′-deoxyuridine (BrdU) was added to the cells, and they were cultured for an additional 24 h. BrdU incorporation was detected using the Cell Proliferation ELISA kit (Roche, Indianapolis, Ind.). Data was analyzed by ANOVA using the Newman-Keuls test to assess significance.

[2] = system: human cardiac fibroblasts; assay: Real-time RT-PCR gene expression in cardiac fibroblasts; format: cell-based; conditions: normalized to 18s RNA
Protocol: Real-time RT-PCR^18 was performed in a two-step manner. cDNA synthesis and real-time detection were carried out in a PTC-100™ Thermal Cycler (MJ Research Inc, Waltham, Mass.) and an ABI Prism™ 7700 Sequence Detection System (Applied Biosystems, Foster City, Calif.), respectively. Random hexamers (Qiagen, Valencia, Calif.) were used to generate cDNA from 200 ng RNA as described in Applied Biosystems User Bulletin #2. TaqMan™ PCR Core Reagent Kit or TaqMan™ Universal PCR Master Mix (Applied Biosystems) were used in subsequent PCR reactions according to the manufacturer's protocols. Relative quantitation of gene expression was performed using the relative standard curve method. All real-time RT-PCR reactions were performed in triplicate.
Sequence specific primers and probes were designed using Primer Express Version 2 software (Applied Biosystems). Sequences of primers and probes can be found in Table 1 below. Expression levels were normalized to 18S rRNA. The selection of 18S rRNA as an endogenous control was based on an evaluation of the ΔCT levels (Applied Biosystems document # 4308134C) of 6 “housekeeping” genes: Cyclophilin A, 18S, GAPDH, β-actin, β-Glucuronidase, and Hypoxanthine Guanine Phosphoribosyl Transferase.

[3] = system: human cardiac fibroblasts; assay: Western blot analysis of Collagen 1 and Fibronectin protein; format: cell-based; conditions: 48 h
Protocol: Lysis was induced with 0.2 ml of buffer containing 20 mM Tris-HCL, pH 7.9, 137 mM NaCl, 1% Triton X-100, 5 mM EDTA, 10 mM NaF, 1 mM β-glycerophosphate, and protease inhibitor cocktail. The protein concentration of each lysate was measured using coomassie protein reagent from PIERCE. Twenty μg of protein from each sample was loaded and electrophoresed on 4-12% gradient polyacrylamide gels and electrophoretically transferred to nitrocellulose membranes (Invitrogen, San Diego, Calif.). The membranes were incubated with rabbit anti-human Collagen 1 antibody (Cortex Biochem, San Leandro, Calif.), HRP-conjugated anti-human Fibronectin antibody, or goat anti-Actin antibody (Santa Cruz Biotehnology, Santa Cruz, Calif.) in TBST buffer containing 20 mM Tris-HCl, pH 7.5, 150 mM NaCl, 0.1% Tween-20, and 5% nonfat dried milk at 4° C. for ˜16 h. For ERK phosphorylation, cells were treated with 0.5 μmol/L BNP in the presence of 1 μmol/L KT5823 or 10 μmol/L U0126 for 15 min; the membranes were incubated with rabbit anti-human phospho-ERK ½ antibody or rabbit anti-human ERK ½ antibody (Cell Signaling, Beverly, Mass.). For secondary antibody detection, membranes were incubated with HRP-conjugated anti-rabbit antibody or anti-goat antibody at room temperature for 1 h and washed 3 times with TBST buffer. The blots were soaked in ECL Plus reagent for 5 min and exposed to KODAK x-ray film. Signals were identified and quantified using a Typhoon Scanner and Densitometer from Amersham Biosciences (Piscataway, N.J.). Data was analyzed by ANOVA using the Newman-Keuls test to assess significance. Results cGMP Production in Cardiac Fibroblasts

[4] = system: human cardiac fibroblasts; assay: cDNA microarray gene expression profiling of TGFβ- and/or BNP-treated cardiac fibroblasts; conditions: for number of gene expression changes induced: 1.8-fold threshold
Protocol: Two lots of primary human cardiac fibroblasts, derived from a person (lot 1) and a person (lot 2), were provided by Cambrex Bio Science (Walkersville, Md.). Cells stained positive for α-smooth muscle actin and vimenfin antibodies corroborating their identity as cardiac fibroblasts and myofibroblasts. Both lots were used for the real-time RT-PCR studies; lot 1 was used for the microarray analysis. Cells at passage 3-5 were cultured in FGM containing 15% FBS. At confluence, cells were split and cultured in 6-well plates for 24 h.
Gene expression profiles were determined from cDNA microarrays containing 8,600 elements derived from clones isolated from normalized cDNA libraries or purchased from ResGen (Invitrogen Life Technologies, Carlsbad, Calif.). DNA for spotting was generated by PCR amplification using 5′amino-modified primers (BD Biosciences Clontech, Palo Alto, Calif.) derived from flanking vector sequences. Amplified DNA was purified in a 96-well format using Qiagen's Qiaquick columns (Valencia, Calif.) according to the manufacturer's recommendations. Samples were eluted in Milli-Q purified water, dried to completion and resuspended in 7 μl of 3×SSC. A fluorescent assay using PicoGreen (Molecular Probes, Eugene, Oreg.) was randomly performed on 12% of the PCR products to determine the average yield after purification; yields were ˜1.5 μg of DNA which corresponds to a concentration of 214 μg/ml. Purified DNA was arrayed from 384-well microtiter plates onto lysine-coated glass slides using an OmniGrid II microarrayer (GeneMachines, San Carlos, Calif.). After printing, DNA was cross-linked to the glass with 65 mjoules UV irradiation and reactive amines were blocked by treatment with succinic anhydride.
Total RNA was extracted from cells using Qiagen's RNeasy kit; two wells from a 6 well plate were pooled to yield a total of 4×10^5 cells per treatment. RNA was amplified using a modified Eberwine protocol^5 that incorporated a polyA tail into the amplified RNA. Fluorescently-labeled cDNA probes were generated by reverse transcription of 4 μg of RNA with SuperScript II (Invitrogen Life Technologies, Carlsbad, Calif.) using anchored dT primers in the presence of Cy3 or Cy5 dUTP (Amersham, Piscataway, N.J.). Labeled cDNA probe pairs were precipitated with ethanol and purified using Qiaquick columns. Twenty μg each of poly(A) DNA, yeast tRNA, and human Cot1 DNA (Applied Genetics, Melbourne, Fla.) was added to the eluant. The samples were dried to completion and resuspended in 12.5 μl 3×SSC, 0.1% SDS. Probes were heated to 95° C. for 5 minutes, applied to the arrays under a 22 mm^2 cover slip and allowed to hybridize for at least 16 h at 65° C. The arrays were washed at 55° C. for 10 minutes in 2×SSC, 0.1% SDS, followed by two washes at room temperature in 1×SSC (10 min) and 0.2×SSC (15 min). Hybridization of each fluorophore was quantified using an Axon GenePix 4000A scanner.
Differential expression values were expressed as the ratio of the median of background-subtracted fluorescent intensity of the experimental RNA to the median of background-subtracted fluorescent intensity of the control RNA. For ratios greater than or equal to 1.0, the ratio was expressed as a positive value. For ratios less than 1.0, the ratio was expressed as the negative reciprocal (i.e., a ratio of 0.5=−2.0). Median ratios were normalized to 1.0 using two pools of 3000 randomly chosen cDNAs in each pool. Six replicates of each of the two pools were printed in 4 evenly distributed blocks of the array. Expression data was rejected if neither channel produced a signal of at least 2.0-fold over background. Differential expression ratios were determined as the mean of the two values from dye-swapped duplicates.

TGFβ
increase in cardiac fibroblast proliferation (BrdU incorporation) [1]: ~50%
ACTA2 expression level relative to control ([2]; 6 h, lot 1): 1.1 ± 0.11
CTGF expression level relative to control ([2]; 6 h, lot 1): 3.5 ± 0.08
Collagen 1 expression level relative to control ([2]; 6 h, lot 1): 1.9 ± 0.04
Fibronectin expression level relative to control ([2]; 6 h, lot 1): 1.1 ± 0.17
IL6 expression level relative to control ([2]; 6 h, lot 1): 3.6 ± 0.27
IL11 expression level relative to control ([2]; 6 h, lot 1): 13.3 ± 0.89
PTGS2/COX-2 expression level relative to control ([2]; 6 h, lot 1): 9.0 ± 1.49
SERPINE1/PAI-1 expression level relative to control ([2]; 6 h, lot 1): 7.3 ± 0.44
TIMP3 expression level relative to control ([2]; 6 h, lot 1): 1.4 ± 0.03
ACTA2 expression level relative to control ([2]; 24 h, lot 1): 2.2 ± 0.00
CTGF expression level relative to control ([2]; 24 h, lot 1): 3.3 ± 0.25
Collagen 1 expression level relative to control ([2]; 24 h, lot 1): 3.3 ± 0.05
Fibronectin expression level relative to control ([2]; 24 h, lot 1): 1.0 ± 0.05
IL6 expression level relative to control ([2]; 24 h, lot 1): 1.7 ± 0.14
IL11 expression level relative to control ([2]; 24 h, lot 1): 32.3 ± 0.82
PTGS2/COX-2 expression level relative to control ([2]; 24 h, lot 1): 3.5 ± 0.67
SERPINE1/PAI-1 expression level relative to control ([2]; 24 h, lot 1): 8.5 ± 0.08
TIMP3 expression level relative to control ([2]; 24 h, lot 1): 2.6 ± 0.26
ACTA2 expression level relative to control ([2]; 24 h, lot 2): 2.3 ± 0.12
CTGF expression level relative to control ([2]; 24 h, lot 2): 2.2 ± 0.16
Collagen 1 expression level relative to control ([2]; 24 h, lot 2): 1.5 ± 0.09
Fibronectin expression level relative to control ([2]; 24 h, lot 2): 1.0 ± 0.02
IL6 expression level relative to control ([2]; 24 h, lot 2): 1.4 ± 0.05
IL11 expression level relative to control ([2]; 24 h, lot 2): 7.7 ± 0.81
PTGS2/COX-2 expression level relative to control ([2]; 24 h, lot 2): 4.9 ± 0.36
SERPINE1/PAI-1 expression level relative to control ([2]; 24 h, lot 2): 2.4 ± 0.06
TIMP3 expression level relative to control ([2]; 24 h, lot 2): 1.5 ± 0.12
ACTA2 expression level relative to control ([2]; 48 h, lot 1): 1.0 ± 0.19
CTGF expression level relative to control ([2]; 48 h, lot 1): 3.1 ± 0.01
Collagen 1 expression level relative to control ([2]; 48 h, lot 1): 3.8 ± 0.38
Fibronectin expression level relative to control ([2]; 48 h, lot 1): 2.2 ± 0.38
IL6 expression level relative to control ([2]; 48 h, lot 1): 1.6 ± 0.12
IL11 expression level relative to control ([2]; 48 h, lot 1): 17.6 ± 0.22
PTGS2/COX-2 expression level relative to control ([2]; 48 h, lot 1): 2.2 ± 0.12
SERPINE1/PAI-1 expression level relative to control ([2]; 48 h, lot 1): 8.4 ± 1.33
TIMP3 expression level relative to control ([2]; 48 h, lot 1): 3.0 ± 0.34
ACTA2 expression level relative to control ([2]; 48 h, lot 2): 2.5 ± 0.13
CTGF expression level relative to control ([2]; 48 h, lot 2): 2.1 ± 0.14
Collagen 1 expression level relative to control ([2]; 48 h, lot 2): 2.5 ± 0.32
Fibronectin expression level relative to control ([2]; 48 h, lot 2): 2.0 ± 0.39
IL6 expression level relative to control ([2]; 48 h, lot 2): 1.4 ± 0.17
IL11 expression level relative to control ([2]; 48 h, lot 2): 5.9 ± 0.18
PTGS2/COX-2 expression level relative to control ([2]; 48 h, lot 2): 5.4 ± 0.92
SERPINE1/PAI-1 expression level relative to control ([2]; 48 h, lot 2): 2.6 ± 0.03
TIMP3 expression level relative to control ([2]; 48 h, lot 2): 1.7 ± 0.13
induction of Collagen 1 protein synthesis [3]: ~3 fold
number of gene expression changes induced ([4]; 24 h): 394
TNFAIP6 expression elevation ([4]; 24 h, microarray): ~3 fold
TNFSF4 expression elevation ([4]; 24 h, microarray): ~3 fold
number of gene expression changes induced ([4]; 48 h): 501
